Data on 21 compounds can be found in PMC6145176 (Bioorganic & medicinal chemistry, 2017).

The test system of series [1] is MAGI-CCR5 cells. Nature of the series: MAGI-CCR5 parallel cytotoxicity testing. Type of series: cell-based. To be noted: for TC50 (NL4-3 row) / TC50 (A17 row): MAGI-CCR5 cells; for TC50 (NL4-3 row): printed in the NL4-3 line of Tables 7 and 10; for MAGI-CCR5 TC50: uninfected MAGI-CCR5 cells, 48 h, MTS, concentration that reduces cell viability by 50%; for TC50 (A17 row): printed in the A17 line of Table 10.

Series [2] can be described thus: Parallel artificial membrane permeation assay. To be noted: for Papp at 100 μM: PAMPA, pH 7.2. In general terms: PAMPA measures passive passage across an artificial lipid membrane.
Series [3] relates to HIV-1Ba-L. Nature of the series: MAGI-CCR5 antiviral assay. Type of series: cell-based. To be noted: for IC50: concentration that reduces viral replication by 50%; for IC90: read-out: MAGI-CCR5 IC90, concentration that reduces viral replication by 90%.
The test system of series [4] is PBMCs. Nature of the series: PBMC cytotoxicity. The format is cell-based, human. To be noted: six days, MTS, concentration that reduces cell viability by 50%.
Series [5] can be described thus: Plasma stability in vitro assay. Type of series: in vitro ADME. The settings on record: percent remaining after incubation for 60 min. at 37 °C, heparinized rat plasma.
A short description of series [6]: Microsomal stability in vitro assay. Type of series: in vitro ADME. The settings on record: percent remaining after incubation for 60 min. at 37 °C, rat liver microsomes.
Series [7] deals with HIV-1 reverse transcriptase (RT) (Human immunodeficiency virus type 1 group M subtype B, UniProt P04585). The series can be described thus: RT biochemical assay. The settings on record: 10 nM HIV-1 RT, 37 °C, 1 h.
The test system of series [8] is HIV wildtype (NL4-3). The series can be described thus: MAGI-CCR5 antiviral assay, HIV wildtype. The format is cell-based. To be noted: HIV wildtype (NL4-3) in MAGI-CCR5 cells; for IC50: read-out: IC50, virus NL4-3; for IC90: read-out: IC90, virus NL4-3.
The mark [9] stands for this setting: read-out: MAGI-CCR5 IC50, HIV-1Ba-L in MAGI-CCR5 cells, 48 h.
Where [10] appears, read: HIV-1Ba-L in MAGI-CCR5 cells, 48 h.
[11] abbreviates: Human immunodeficiency virus 1, MAGI-CCR5, 48 h, read-out: MAGI-CCR5 IC50, HIV-1Ba-L in MAGI-CCR5 cells, 48 h.

Read-outs that look alike come from different tables or passages of the source. Marks after values point to notes of the source that are not given here. Some results are limits rather than exact numbers.

As to `CC1=C(c2nc(-c3ccc(C#N)cc3)cs2)C(c2ccc(F)nc2)NC(=O)N1` (stereo not shown) [1ae, 4-(2-(4-(6-Fluoropyridin-3-yl)-6-methyl-2-oxo-1,2,3,4-tetrahydropyrimidin-5-yl)thiazol-4-yl)benzonitrile], in series [1], the “TC50 (NL4-3 row)” value was greater than 100 µM. This compound had a Papp at 100 μM in series [2] of 0.575 ×10⁻⁶ cm/s.
“4-(2-(6-Methyl-2-oxo-4-(quinolin-4-yl)-1,2,3,4-tetrahydropyrimidin-5-yl)thiazol-4-yl)benzonitrile [1ab]”: the “MAGI-CCR5 TC50” value in series [1] is greater than 100.00 µM. Besides, in series [3] (setting [9]), the IC50 was 1.5 ± 0.3 µM. Further, in series [3] (setting [10]), the IC90 turned out to be 12.7 ± 3.6 µM. Moreover, in series [4], the “PBMC TC50” value is greater than 100.00 µM.
As to `CC1=C(c2nc(-c3ccc(C#N)cc3)cs2)C(c2cc3ccccc3n2C)NC(=O)N1` (stereo not shown) [1ad, 4-(2-(6-Methyl-4-(1-methyl-1H-indol-2-yl)-2-oxo-1,2,3,4-tetrahydropyrimidin-5-yl)thiazol-4-yl)benzonitrile], in series [1], the “TC50 (A17 row)” value is greater than 100 µM and the “TC50 (NL4-3 row)” value is greater than 100 µM. Also, in series [3] (setting [11]), the IC50 was found to be 0.74 µM. Also, in series [2], the Papp at 100 μM was 0.0891 ×10⁻⁶ cm/s.
For the compound `CC1=C(c2nc(-c3ccc(C#N)cc3)cs2)C(c2ccc(OCc3ccccc3)cc2)NC(=O)N1` (stereo not shown) [1q, 4-(2-(4-(4-(Benzyloxy)phenyl)-6-methyl-2-oxo-1,2,3,4-tetrahydropyrimidin-5-yl)thiazol-4-yl)benzonitrile], the IC50 in series [3] (setting [11]) is less than 0.15 µM.
As for “4-(2-(6-Methyl-2-oxo-4-(pyridin-3-yl)-1,2,3,4-tetrahydropyrimidin-5-yl)thiazol-4-yl)benzonitrile [1y]”, the “Plasma Stability (%)” value in series [5] came out at 89.42 ± 2.93%. Further, the “MAGI-CCR5 TC50” value in series [1] is greater than 100.00 µM. The “Microsomal Stability (%)” value in series [6] was 75.55 ± 7.86%. Further, the IC50 in series [3] (setting [9]) was 2.9 ± 0.1 µM. The IC90 in series [3] (setting [10]) is greater than 100 µM. In addition, the “PAMPA (LogPe)” value in series [2] (polar brain lipid membrane, predicts BBB permeability) is −7.50 ± 0.10. Besides, the “PBMC TC50” value in series [4] is greater than 100.00 µM.
Regarding `CC1=C(c2nc(-c3ccc(C#N)cc3)cs2)[C@H](c2cccc(O)c2)NC(=O)N1` [(S)-1i], the “RT biochemical IC50 (μM) ± SD” value in series [7] is recorded as “Not active”. Also, the “PBMC TC50” value in series [4] was greater than 100 µM.
Regarding `COc1ccc(-c2csc(C3=C(C)NC(=O)NC3c3cccc(O)c3)n2)cc1` (stereo not shown) [1b], the “PBMC TC50” value in series [4] was 91 ^e μM.
For the compound `COc1ccc(C2NC(=O)NC(C)=C2c2nc(-c3ccc(C#N)cc3)cs2)cn1` (stereo not shown) [1an, 4-(2-(4-(6-Methoxypyridin-3-yl)-6-methyl-2-oxo-1,2,3,4-tetrahydropyrimidin-5-yl)thiazol-4-yl)benzonitrile], the “TC50 (NL4-3 row)” value in series [1] is greater than 100 µM. For the same compound, the Papp at 100 μM in series [2] is 0.0562 ×10⁻⁶ cm/s.
`CC1=C(c2nc(-c3ccc(C#N)cc3)cs2)[C@@H](c2cccc(O)c2)NC(=O)N1` [(R)-1i]: the “PBMC TC50” value in series [4] was greater than 100 µM.
Turning to “4-(2-(6-Methyl-2-oxo-4-(pyridin-4-yl)-1,2,3,4-tetrahydropyrimidin-5-yl)thiazol-4-yl)benzonitrile [1z]”, the “MAGI-CCR5 TC50” value in series [1] is greater than 100.00 µM. Besides, the concentration for half-maximal inhibition (IC50) in series [3] (setting [9]) worked out at 1.4 ± 0.4 µM. In addition, in series [3] (setting [10]), the 90% effect concentration (IC90) was greater than 100 µM. The “PBMC TC50” value in series [4] is greater than 100.00 µM.
In turn, `CC1=C(c2nc(-c3ccc(C#N)cc3)cs2)C(c2cccc(O)c2)NC(=O)N1` (stereo not shown) [1i, 4-(2-(4-(3-Hydroxyphenyl)-6-methyl-2-oxo-1,2,3,4-tetrahydropyrimidin-5-yl)thiazol-4-yl)benzonitrile] showed a Papp at 100 μM in series [2] of 0.0145 ×10⁻⁶ cm/s. Moreover, the “PBMC TC50” value in series [4] was determined as 84 ± 8.2 µM.
Take `CC1=C(c2nc(-c3ccc(C#N)cc3)cs2)C(c2ccc(O)cc2)NC(=O)N1` (stereo not shown) [1l, 4-(2-(4-(4-Hydroxyphenyl)-6-methyl-2-oxo-1,2,3,4-tetrahydropyrimidin-5-yl)thiazol-4-yl)benzonitrile]: in series [1], the “TC50 (NL4-3 row)” value was determined as 46 ± 6.1 µM. The same compound showed a Papp at 100 μM in series [2] of 0.0151 ×10⁻⁶ cm/s.
In turn, `CC1=C(c2nc(-c3ccc(C#N)cc3)cs2)C(c2ccc(Cl)nc2)NC(=O)N1` (stereo not shown) [1ai, 4-(2-(4-(6-Chloropyridin-3-yl)-6-methyl-2-oxo-1,2,3,4-tetrahydropyrimidin-5-yl)thiazol-4-yl)benzonitrile] showed a Papp at 100 μM in series [2] of 0.0398 ×10⁻⁶ cm/s.
Regarding `CC1=C(c2nc(-c3ccc(C#N)cc3)cs2)C(c2ccc(Br)nc2)NC(=O)N1` (stereo not shown) [1am, 4-(2-(4-(6-Bromopyridin-3-yl)-6-methyl-2-oxo-1,2,3,4-tetrahydropyrimidin-5-yl)thiazol-4-yl)benzonitrile], the “TC50 (NL4-3 row)” value in series [1] is greater than 100 µM. In series [2], this compound gave an apparent permeability (Papp) at 100 μM of 0.0151 ×10⁻⁶ cm/s.
Consider “4-(2-(6-Methyl-2-oxo-4-(quinolin-2-yl)-1,2,3,4-tetrahydropyrimidin-5-yl)thiazol-4-yl)benzonitrile [1aa]”, for which the “MAGI-CCR5 TC50” value in series [1] was greater than 100.00 µM. Moreover, the IC50 in series [3] (setting [9]) was 3.8 ± 1 µM. Moreover, the IC90 in series [3] (setting [10]) was 98.3 ± 1.7 µM. Further, in series [4], the “PBMC TC50” value was determined as 68.3 ± 22.1 µM.
For `COc1ccc(C2NC(=O)NC(C)=C2c2nc(-c3ccc(C#N)cc3)cs2)cc1` (stereo not shown) [1m, 4-(2-(4-(4-Methoxyphenyl)-6-methyl-2-oxo-1,2,3,4-tetrahydropyrimidin-5-yl)thiazol-4-yl)benzonitrile], the “TC50 (NL4-3 row)” value in series [1] was determined as 5.5 ± 1.0 µM. Also, in series [3] (setting [11]), the IC50 was less than 0.15 µM. In series [2], this compound showed a Papp at 100 μM of 0.0776 ×10⁻⁶ cm/s.
Take “4-(2-(6-Methyl-2-oxo-4-(pyridin-2-yl)-1,2,3,4-tetrahydropyrimidin-5-yl)thiazol-4-yl)benzonitrile [1x]”: the “MAGI-CCR5 TC50” value in series [1] is greater than 100.00 µM. Besides, the IC50 in series [3] (setting [9]) was found to be 2 ± 0.5 µM. The IC90 in series [3] (setting [10]) is greater than 100 µM. Also, the “PBMC TC50” value in series [4] was greater than 100.00 µM.
In the case of `Cc1ccnc2c1NC(=O)c1cccnc1N2C1CC1` [NVP, nevirapine, reference compound], in series [8], the IC50 turned out to be 0.07 ± 0.03 µM and the IC90 was determined as 0.6 ± 0.07 µM.
Turning to `CC1=C(c2nc(-c3ccc(C#N)cc3)cs2)C(c2ccc(C(F)(F)F)nc2)NC(=O)N1` (stereo not shown) [1ar, 4-(2-(6-Methyl-2-oxo-4-(6-(trifluoromethyl)pyridin-3-yl)-1,2,3,4-tetrahydropyrimidin-5-yl)thiazol-4-yl)benzonitrile], the “TC50 (NL4-3 row)” value in series [1] was greater than 100 µM.
As to `CC1=C(c2nc(-c3ccc(C#N)cc3)cs2)C(c2ccc(Oc3ccccc3)cc2)NC(=O)N1` (stereo not shown) [1p, 4-(2-(6-Methyl-2-oxo-4-(4-phenoxyphenyl)-1,2,3,4-tetrahydropyrimidin-5-yl)thiazol-4-yl)benzonitrile], the IC50 in series [3] (setting [11]) was less than 0.15 µM.
As to “3-Methyl-4-(2-(6-methyl-4-(1-methyl-1H-indol-2-yl)-2-oxo-1,2,3,4-tetrahydropyrimidin-5-yl)thiazol-4-yl)benzonitrile [1at]”, in series [1], the “TC50 (A17 row)” value is greater than 100 µM, the “TC50 (NL4-3 row)” value was greater than 100 µM and the “MAGI-CCR5 TC50” value is greater than 100 µM. In series [8], the IC50 was determined as 0.39 ± 0.05 µM and the concentration for an effect of 90% (IC90) turned out to be 4.8 ± 0.6 µM. In addition, the IC50 in series [3] (setting [9]) worked out at 0.39 ± 0.05 µM. Moreover, the IC90 in series [3] (setting [10]) stood at 1.9 ± 0.3 µM. Further, in series [4], the “PBMC TC50” value is listed as >100 ^d μM.

Usually Papp stands for the rate of passage across a membrane or cell layer, normalised by area and donor concentration. A word on the IC50: it is the point on the concentration scale where inhibition reaches its midpoint. For orientation: IC90 means the concentration needed for an effect of 90%.
